According to ChEMBL document CHEMBL1201862, “PubChem BioAssay data set” (2004):
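Compound exposure: 48 hours, 5 concentrations, 96-well plates. GI50 marks 50% less growth.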 Active and inactive are the calls of the source. Cut-off read from the data, not from the text of the source: active = GI50 up to about 1.1 µM and inactive = higher.

Legend:
Experiment in all cases: DTP human tumour cell line panel, 48 h
[1] = system: HT-29
[2] = system: PC-3
[3] = system: RPMI-8226
[4] = system: COLO 205
[5] = system: Hs-578T
[6] = system: SR
[7] = system: EKVX
[8] = system: MDA-N
[9] = system: ACHN
[10] = system: HCT-15
[11] = system: OVCAR-5
[12] = system: SK-MEL-5
[13] = system: DU-145
[14] = system: 786-0
[15] = system: SW-620
[16] = system: HCT-116
[17] = system: SK-MEL-28
[18] = system: SN12C
[19] = system: SNB-75

SMILES	GI50 [1]	GI50 [2]	GI50 [3]	GI50 [4]	GI50 [5]	GI50 [6]	GI50 [7]	GI50 [8]	GI50 [9]	GI50 [10] [µM]	GI50 [11]	GI50 [12]	GI50 [13]	GI50 [14]	GI50 [15]	GI50 [16]	GI50 [17]	GI50 [18]	GI50 [19]
Cc1ccc(S(=O)(=O)n2c3c(c4ccccc42)CCN2C(=O)C(S(=O)(=O)c4ccccc4)=CCC32)cc1 (centres undefined)	0.212 µM (active)	0.239 µM (active)	0.327 µM (active)	0.236 µM (active)	0.579 µM (active)	0.255 µM (active)	0.448 µM (active)	0.192 µM (active)	0.193 µM (active)	0.188	0.23 µM (active)	0.165 µM (active)	0.17 µM (active)	0.178 µM (active)	0.281 µM (active)	0.17 µM (active)	0.168 µM (active)	0.211 µM (active)	0.157 µM (active)
O=C(CC(C(=O)c1cccs1)c1ccsc1)c1ccc(Cl)cc1 (centres undefined)	> 100 µM (inactive)	> 100 µM (inactive)	> 100 µM (inactive)	> 100 µM (inactive)	> 100 µM (inactive)	> 100 µM (inactive)	> 100 µM (inactive)	> 100 µM (inactive)	> 100 µM (inactive)	> 100	> 100 µM (inactive)	> 100 µM (inactive)	> 100 µM (inactive)	> 100 µM (inactive)	> 100 µM (inactive)	> 100 µM (inactive)	> 100 µM (inactive)	> 100 µM (inactive)	> 100 µM (inactive)
COC1C(=O)CCC2(CO2)C1(O)C1(C)OC1CCC(C)C (centres undefined)	22.2 µM (inactive)	25.9 µM (inactive)	> 100 µM (inactive)	23.9 µM (inactive)	84.3 µM (inactive)	> 100 µM (inactive)	> 100 µM (inactive)	29.4 µM (inactive)	28.2 µM (inactive)	29.4	> 100 µM (inactive)	21.5 µM (inactive)	5.6 µM (inactive)	47.2 µM (inactive)	19.8 µM (inactive)	21.5 µM (inactive)	21.8 µM (inactive)	23.3 µM (inactive)	> 100 µM (inactive)
COc1cc(N(Cc2ccc3nc(OC)c(OC)nc3c2)Cc2ccc3nc(OC)c(OC)nc3c2)cc(OC)c1OC	> 50 µM (inactive)	> 50 µM (inactive)	> 50 µM (inactive)	> 50 µM (inactive)	7.67 µM (inactive)	> 50 µM (inactive)	39.3 µM (inactive)	> 50 µM (inactive)	42.2 µM (inactive)	> 50	> 50 µM (inactive)	> 50 µM (inactive)	> 50 µM (inactive)	16.3 µM (inactive)	> 50 µM (inactive)	33.2 µM (inactive)	> 50 µM (inactive)	> 50 µM (inactive)	6.9 µM (inactive)
CC(CN(C)C)C(=O)/C=C/c1ccc(Cl)c(Cl)c1 (centres undefined)	1.67 µM (inactive)	1.04 µM (active)	0.338 µM (active)	1.3 µM (inactive)	3.69 µM (inactive)	1.02 µM (active)	1.7 µM (inactive)	2.07 µM (inactive)	1.87 µM (inactive)	1.59	2.06 µM (inactive)	1.6 µM (inactive)	> 100 µM (inactive)	0.766 µM (active)	2.07 µM (inactive)	1.56 µM (inactive)	3.37 µM (inactive)	1.58 µM (inactive)	19.1 µM (inactive)
Cc1ccc(/N=N/c2ccc(N)cc2C)c(S(N)(=O)=O)c1	82.4 µM (inactive)	89.7 µM (inactive)	70.8 µM (inactive)	76.7 µM (inactive)	63 µM (inactive)	0.478 µM (active)	26.1 µM (inactive)	71.9 µM (inactive)	90.6 µM (inactive)	71.4	> 100 µM (inactive)	77.6 µM (inactive)	> 100 µM (inactive)	> 100 µM (inactive)	> 100 µM (inactive)	75.3 µM (inactive)	> 100 µM (inactive)	> 100 µM (inactive)	61.9 µM (inactive)
